Consider two compounds from PubChem BioAssay (NCI).

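Exposure lasted 48 hours, with cells grown in 96-well plates and compounds tested at five concentrations. Abbreviation: GI50, concentration required for 50% inhibition of growth. TGI marks complete inhibition of growth.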

Test systems include A498 renal; HCC-2998 colon; MDA-MB-435; NCI/ADR-RES ovarian; OVCAR-3 ovarian; OVCAR-5 ovarian; PC-3 prostate; SF-295 CNS; SK-MEL-28 melanoma; SNB-19 CNS.
Holding throughout (experiment): NCI tumour cell line growth inhibition, 48 h

Consider `C=C(C)C1/C=C(/C(C)C)CC[C@]2(C)O[C@@H]2CC[C@H](C)CC1=O` (stereo not given in full), for which the GI50 with A498 renal was 83.4 µM; with HCC-2998 colon, 99.9 µM; with MDA-MB-435, 39 µM; with NCI/ADR-RES ovarian, 87.4 µM; in the assay on OVCAR-3 ovarian, 25.4 µM; in the assay on OVCAR-5 ovarian it was > 100 µM. Besides, the GI50 in the assay on PC-3 prostate was 32.4 µM; in the assay on SF-295 CNS, 71.4 µM; in the assay with SK-MEL-28 melanoma, > 100 µM; in the assay with SNB-19 CNS, > 100 µM. Also, the TGI in the assay with A498 renal was > 100 µM; in the assay on HCC-2998 colon, > 100 µM; in the assay on MDA-MB-435 it was > 100 µM; with NCI/ADR-RES ovarian it was > 100 µM; in the assay with OVCAR-3 ovarian, 81.1 µM; in the assay with OVCAR-5 ovarian, > 100 µM. Besides, the TGI in the assay on PC-3 prostate, in the assay with SF-295 CNS, with SK-MEL-28 melanoma and with SNB-19 CNS was > 100 µM each time.

Take `Fc1ccc(-c2ncn(C3CCNCC3)c2-c2ccnc(Oc3cccc(F)c3)n2)cc1`: the GI50 in the assay on A498 renal was > 25 µM; with HCC-2998 colon, 7.14 µM; with MDA-MB-435, 6.57 µM; in the assay on NCI/ADR-RES ovarian, > 23.4 µM; in the assay with OVCAR-3 ovarian, > 20.9 µM; with OVCAR-5 ovarian, 22.2 µM. Besides, the GI50 is 16.5 µM with PC-3 prostate, 12.4 µM with SF-295 CNS, 5.46 µM in the assay with SK-MEL-28 melanoma and > 25 µM in the assay with SNB-19 CNS. In addition, the TGI in the assay on A498 renal is > 25 µM; with HCC-2998 colon, > 25 µM; in the assay on MDA-MB-435 it was > 19.4 µM; in the assay on NCI/ADR-RES ovarian, > 25 µM; with OVCAR-3 ovarian, > 25 µM; with OVCAR-5 ovarian, > 25 µM. Moreover, the TGI in the assay with PC-3 prostate is > 25 µM; in the assay on SF-295 CNS, > 25 µM; in the assay with SK-MEL-28 melanoma, 11.6 µM; in the assay with SNB-19 CNS, > 25 µM.
